In series [1] the target is T1, Serine/threonine-protein kinase 17A (Homo sapiens) (UniProt Q9UEE5).
T1 sequence (whole entry): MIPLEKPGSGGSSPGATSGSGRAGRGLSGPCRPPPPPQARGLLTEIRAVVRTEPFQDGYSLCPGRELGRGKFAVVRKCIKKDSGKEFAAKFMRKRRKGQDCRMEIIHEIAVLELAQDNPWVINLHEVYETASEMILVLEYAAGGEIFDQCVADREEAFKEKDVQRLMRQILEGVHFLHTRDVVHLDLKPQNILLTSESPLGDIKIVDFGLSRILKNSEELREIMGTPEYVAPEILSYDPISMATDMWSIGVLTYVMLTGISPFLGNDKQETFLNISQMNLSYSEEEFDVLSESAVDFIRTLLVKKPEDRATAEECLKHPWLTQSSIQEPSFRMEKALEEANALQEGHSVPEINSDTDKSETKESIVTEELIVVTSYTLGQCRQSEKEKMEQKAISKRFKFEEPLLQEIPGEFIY
The series can be described thus: Inhibition of human N-terminal His-tagged/ TEV cleavage fused DRAK1 (39 to 369 residues) expressed in Escherichia coli assessed as change in enthalpy by isothermal titration calorimetry. In general terms: In ITC the heat of successive injections is recorded.

Series [2] addresses T1, Serine/threonine-protein kinase 17A (Homo sapiens). The series can be described thus: Binding affinity to human N-terminal His-tagged/ TEV cleavage fused DRAK1 (39 to 369 residues) expressed in Escherichia coli assessed as change in melting temperature at 10 uM by SYPRO orange dye based DSF assay. (In general: In DSF a fluorescence change marks the thermal transition of the protein.)

The target of series [3] is T2, Casein kinase II subunit alpha (Homo sapiens, UniProt P68400). The series can be described thus: Binding affinity to wild type full length human CK2alpha1 (1 to 391 residues) expressed in mammalian expression system assessed as change in melting temperature at 10 uM by SYPRO orange dye based DSF assay.
Target sequence in this assay (P68400 whole entry, looked up, the tested form may be a part): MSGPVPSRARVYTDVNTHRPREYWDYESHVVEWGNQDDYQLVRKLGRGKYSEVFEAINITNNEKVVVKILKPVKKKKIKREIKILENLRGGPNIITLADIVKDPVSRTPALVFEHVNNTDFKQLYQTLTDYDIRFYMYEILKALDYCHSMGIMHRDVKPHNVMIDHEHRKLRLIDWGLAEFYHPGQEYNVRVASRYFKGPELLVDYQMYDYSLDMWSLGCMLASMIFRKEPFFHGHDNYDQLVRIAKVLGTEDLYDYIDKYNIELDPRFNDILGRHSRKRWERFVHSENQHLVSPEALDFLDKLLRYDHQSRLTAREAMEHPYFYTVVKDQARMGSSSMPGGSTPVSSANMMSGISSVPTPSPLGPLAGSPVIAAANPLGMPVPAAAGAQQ
The target in series [4] is T3, Serine/threonine-protein kinase 17A (Homo sapiens, UniProt Q9UEE5).
T3 sequence (Q9UEE5 whole entry): T1 sequence (whole entry)
The series can be described thus: Inhibition of human N-terminal His-tagged/ TEV cleavage fused DRAK1 (39 to 369 residues) expressed in Escherichia coli using KKLNRTLSFAEPG peptide as substrate in presence of [gamma-33P]ATP by radiometric based scintillation proximity assay.

For series [5], the target named is T2, Casein kinase II subunit alpha. The series can be described thus: Inhibition of human CK2alpha1 using RRRDDDSDDD peptide as substrate in presence of [gamma-33P]ATP by radiometric based scintillation proximity assay. Background: SPA uses beads or plates that emit light when radiolabelled molecules are held near them.
Target sequence in this assay (P68400 whole entry, the tested form may be a part): as the sequence (P68400 whole entry, looked up, the tested form may be a part) above
In series [6] the target is T3, Serine/threonine-protein kinase 17A. The series can be described thus: Inhibition of human N-terminal His-tagged/ TEV cleavage fused DRAK1 (39 to 369 residues) transfected in HEK293T cells using NanoBRET NanoGlo as substrate incubated for 2 hrs by NanoBRET assay. The format is cell-based.
Series [7] in a line: Inhibition of CK2alpha2 (unknown origin) transfected in HEK293T cells using NanoBRET NanoGlo as substrate incubated for 2 hrs by NanoBRET assay. The settings on record: Homo sapiens, HEK-293T. The format is cell-based.
Series [8] has as its target BMP-2-inducible protein kinase (Homo sapiens, UniProt Q9NSY1). The series can be described thus: Inhibition of BIKE (unknown origin) transfected in HEK293T cells using NanoBRET NanoGlo as substrate incubated for 2 hrs by NanoBRET assay. The format is cell-based.
The target of series [9] is T4, Serine/threonine-protein kinase 17B (Homo sapiens, UniProt O94768).
T4 sequence (O94768 whole entry): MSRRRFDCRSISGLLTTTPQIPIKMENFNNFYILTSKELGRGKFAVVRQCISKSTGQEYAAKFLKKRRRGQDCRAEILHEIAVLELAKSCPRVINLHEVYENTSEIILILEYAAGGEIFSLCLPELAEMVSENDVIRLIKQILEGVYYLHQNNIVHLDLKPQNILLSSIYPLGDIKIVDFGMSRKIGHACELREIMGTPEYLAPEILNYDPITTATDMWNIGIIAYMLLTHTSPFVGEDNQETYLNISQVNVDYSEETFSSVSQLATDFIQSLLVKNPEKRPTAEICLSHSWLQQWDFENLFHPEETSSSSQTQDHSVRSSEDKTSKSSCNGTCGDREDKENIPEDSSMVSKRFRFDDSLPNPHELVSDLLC
The series can be described thus: Inhibition of DRAK2 (unknown origin) transfected in HEK293T cells using NanoBRET NanoGlo as substrate incubated for 2 hrs by NanoBRET assay. The format is cell-based.

Series [10] concerns the target T1, Serine/threonine-protein kinase 17A (Homo sapiens). The series can be described thus: Inhibition of human N-terminal His-tagged/ TEV cleavage fused DRAK1 (39 to 369 residues) expressed in Escherichia coli assessed as change in entropy by isothermal titration calorimetry.
The target is the same in series [11]. The series can be described thus: Inhibition of human N-terminal His-tagged/ TEV cleavage fused DRAK1 (39 to 369 residues) expressed in Escherichia coli assessed as gibbs free energy change by isothermal titration calorimetry.
In series [12] the test system is HEK-293T. The series can be described thus: Cytotoxicity against human HEK293T cells at 1 uM incubated for 18 hrs. The format is toxicity, cell-based.
In series [13] the test system is HEK-293T. The series can be described thus: Cytotoxicity against human HEK293T cells at 1 uM incubated for 36 hrs. The format is toxicity, cell-based.
Series [14] in a line: Cytotoxicity against human MRC9 cells at 1 uM incubated for 36 hrs. The format is toxicity, cell-based. Particulars: mrc9, 36 h.
Series [15] is described as follows: Cytotoxicity against human HEK293T cells assessed as increase in total apoptotic cells incubated for 36 hrs by Annexin V staining based method. The format is toxicity, cell-based, HEK-293T.
A short description of series [16]: Cytotoxicity against human MRC9 cells assessed as increase in total apoptotic cells incubated for 36 hrs by Annexin V staining based method. The format is toxicity, cell-based.
Series [17] has as its system HEK-293T. The series can be described thus: Induction of morphological changes in human HEK293T cells assessed as microtubule damage at 1 to 10 uM incubated for 18 hrs by confocal fluorescence microscopic analysis. The format is toxicity, cell-based. Particulars: dose 1-10 µM.
Series [18] is described as follows: Induction of morphological changes in human MRC9 cells assessed as microtubule damage at 1 to 10 uM incubated for 18 hrs by confocal fluorescence microscopic analysis. Particulars: mrc9, 18 h, dose 1-10 µM. The format is toxicity, cell-based.
Series [19] can be described thus: Induction of morphological changes in human MRC9 cells assessed as mitochondrial damage at 1 to 10 uM incubated for 18 hrs by confocal fluorescence microscopic analysis. The format is toxicity, cell-based. The settings on record: mrc9, 18 h, dose 1-10 µM.
In series [20] the test system is T98G. The series can be described thus: Antiproliferative activity against human T98G cells assessed as reduction in cell viability measured after 1 to 7 days by resazurin dye based fluorimetric analysis. The format is functional.
Series [21] relates to HEK-293T. The series can be described thus: Cytotoxicity against human HEK293T cells assessed as increase in total apoptotic cells at 10 uM incubated for 36 hrs by Annexin V staining based method. The format is toxicity, cell-based.
Series [22] concerns U2OS. The series can be described thus: Cytotoxicity against human U2OS cells assessed as increase in total apoptotic cells at 10 uM incubated for 36 hrs by Annexin V staining based method. The format is functional, cell-based.

Activity calls are given as the source filed them. The rule behind the calls is not given here.

Chain of BMP-2-inducible protein kinase (Q9NSY1 whole entry): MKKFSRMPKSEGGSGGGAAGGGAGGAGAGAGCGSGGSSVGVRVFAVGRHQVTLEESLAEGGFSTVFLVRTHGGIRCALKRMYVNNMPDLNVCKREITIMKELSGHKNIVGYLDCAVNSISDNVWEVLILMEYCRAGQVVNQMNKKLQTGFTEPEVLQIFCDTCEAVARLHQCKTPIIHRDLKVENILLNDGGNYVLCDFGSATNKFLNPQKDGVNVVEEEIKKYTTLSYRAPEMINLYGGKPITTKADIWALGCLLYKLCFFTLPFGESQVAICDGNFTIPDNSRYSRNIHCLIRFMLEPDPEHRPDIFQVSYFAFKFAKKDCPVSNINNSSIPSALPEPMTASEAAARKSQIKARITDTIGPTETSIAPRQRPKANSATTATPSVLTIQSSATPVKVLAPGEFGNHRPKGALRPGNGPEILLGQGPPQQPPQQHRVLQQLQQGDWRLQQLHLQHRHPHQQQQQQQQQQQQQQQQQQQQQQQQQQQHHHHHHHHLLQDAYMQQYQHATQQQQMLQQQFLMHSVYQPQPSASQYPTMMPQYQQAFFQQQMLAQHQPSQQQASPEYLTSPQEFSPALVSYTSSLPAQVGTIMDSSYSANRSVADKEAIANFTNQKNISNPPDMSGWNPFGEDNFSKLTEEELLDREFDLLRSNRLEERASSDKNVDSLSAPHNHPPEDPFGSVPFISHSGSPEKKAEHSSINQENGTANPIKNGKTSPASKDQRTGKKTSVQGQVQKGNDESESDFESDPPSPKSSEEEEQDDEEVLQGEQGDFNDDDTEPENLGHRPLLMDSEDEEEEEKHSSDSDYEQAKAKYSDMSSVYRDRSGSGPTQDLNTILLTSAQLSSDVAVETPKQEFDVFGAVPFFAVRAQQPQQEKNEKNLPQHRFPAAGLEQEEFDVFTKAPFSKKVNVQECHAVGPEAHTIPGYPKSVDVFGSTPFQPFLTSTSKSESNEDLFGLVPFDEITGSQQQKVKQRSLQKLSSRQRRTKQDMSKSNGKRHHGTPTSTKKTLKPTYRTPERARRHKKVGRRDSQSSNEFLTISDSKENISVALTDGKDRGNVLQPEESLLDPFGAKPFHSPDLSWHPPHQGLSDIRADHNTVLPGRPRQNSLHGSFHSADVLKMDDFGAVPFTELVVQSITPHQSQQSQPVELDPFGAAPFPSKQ

Turning to `CC(C)(C)NC(=O)c1ccc2cc1OCCOCCNc1ccn3ncc-2c3n1`, the deltaH in [1] was -7.39 kcal/mol. Further, the ΔTm – broadly, the shift of the melting midpoint relative to a reference – in series [2] was determined as 11.3 °C; in series [3] it was 0.8 °C. In addition, the IC50 (usually the concentration needed to halve the response being measured) in [4] came out at 49 nM; in [5], 950 nM; in [6], 182 nM; in series [7], 39 µM; in [8], 8 µM; in series [9] it was 8.4 µM. For the same molecule, the deltaS in [10] was 11.1 cal/mol.K. The deltaG in [11] was -10.6 kcal/mol. Moreover, the Activity entry in series [12], in [13], in series [14], in series [17], in series [18] and in series [19] was “Non-Toxic” in each case. In addition, in series [21], the Activity result was “Toxic”. The EC50 at 36 h in series [15] and in series [16] was greater than 10 µM throughout. In series [20], the EC50 (usually the concentration that produces a half-maximal response) is 10.4 µM. Also, the outcome in series [22] was Active.

For the origin of these results see ChEMBL document CHEMBL5154923 (J Med Chem, 2022).
